Data as given in patent US20220243177A1, “METHODS OF CULTURING QUIESCENT HEMATOPOIETIC STEM CELLS AND TREATMENT METHODS” (priority 2019, published 2022).

Assays:
Format in all cases: cell-based, mouse
[1] = tested on: MMP-low and MMP-high HSCs of CAG-RFP-EGFP-LC3 bone marrow; assay: CAG-RFP-EGFP-LC3 assay; conditions: ConA 40 nM, 3 hours; superior to starving condition
Method: CAG-RFP-EGFP-LC3 Assay. Total BM cells from CAG-RFP-EGFP-LC3 mice were cultured in StemSpan with SCF (10 ng/mL) and TPO (20 ng/mL) at 8×10^6 cells/ mL. Cells were either incubated with ConA (40 nM), chloroquine (CQ, […]), leupeptin ([…]) or DMSO control, or -starved amino acid-depleted RPMI 1640 media for 3 hours to induce autolysosome accumulation. Both GFP and mRFP are expressed in a single transgene, both green and red fluorescence is emitted from the same LC3 molecule, with 1:1 stoichiometry, thus allowing a more-accurate quantification of autophagosomes and autolysosomes measured by flow cytometry 3 hours post-treatment. Given the fluorescent incompatibility, only frequency of HSC with autophagosome (RFP^+GFP^+-LC3) or autolysosome formation (RFP^+-LC3) normalized to conditions with MMP-low against MMP-high HSCs was determined.

[2] = tested on: MMP-low and MMP-high LSK cells; assay: Metabolic assays (Seahorse OCR and ECAR); conditions: ConA 40 nM, 18 hours
Method: Metabolic Assays. Oxygen consumption rates (“OCR”) and extracellular acidification rates (“ECAR”) were measured using a 96-well Seahorse Bioanalyzer XF 96 according to manufacturer's instructions using Seahorse Mito Stress Test or Glycolysis Stress Test kit (Agilent Technologies). In brief, MMP-low and MMP-high LSK cells isolated from a pool of at least 11 mice (40,000 cells per well) were sorted and treated with or without ConA (40 nM) for 18 hours in StemSpan media with SCF (10 ng/mL) and TPO (20 ng/mL). Cells were washed and suspended in XF basic medium with 11 mM glucose, 1 mM sodium pyruvate and 2 mM glutamine (pH 7.4 at 37° C.). The injection port A on the sensor cartridge was loaded with […] oligomycin (Oligo), 2 mM FCCP was loaded into port B and 0.5 mM rotenone/antimycin (ROT/AA) A was loaded into port C. During sensor calibration, the cells were incubated in the 37° C. non-CO2 incubator. The plate was immediately placed onto the calibrated XF96 extracellular flux analyzer for the Mito Stress Test. For the glycolysis stress test, cells were suspended in XF basic medium in 1 mM glutamine (pH 7.4 at 37° C.). The injection port A on the sensor cartridge was loaded with 10 mM glucose. Then, 2 mM oligomycin was loaded into port B and 50 mM 2-DG into port C. During sensor calibration, cells were incubated in the 37° C. non-CO2 incubator. The plate was immediately placed in the calibrated XF96 extracellular flux analyzer for the glycolysis stress test.

[3] = tested on: MMP-low and MMP-high HSCs; assay: Autophagic vacuole formation / lysosomal localization of mitochondria (confocal immunofluorescence)
From the text: Immunofluorescence Staining, Imaging, and Analysis—Super Resolution Confocal Microscopy: Images were acquired with a Zeiss LSM 880 confocal microscope equipped with Airyscan Super Resolution Imaging module, using a 100×/1.46 Alpha Plan Apochromat objective lens (Zeiss MicroImaging, Jena, Germany) with “optimal” (Nyquist) XY scaling. Z stacks through the entire cell were acquired at an […] (at least 20 optical sections) using a pixel dwell time of >50 microseconds and field dimensions of […] (20 MMP-low and 20 MMP-high HSCs analyzed). This was followed by Airyscan image processing (set at auto but rarely over 6.2) and analyses using ZEN image acquisition and processing software (ZEN blue/black). Maximum intensity projections shown in the figures were also obtained using ZEN Blue software.
Lysosomal Localization of Mitochondria. FACS-sorted MMP-low and MMP-high HSCs (LSKCD150^+CD48^-MMP-low/-high) were treated with DMSO control or leupeptin […] for 4 hours. HSCs were then fixed and imaged for TOM20 (mitochondria) and LAMP1 (lysosomes).
Autophagic Vacuole Formation. Accumulation of autophagy substrates, Translocase of outer membrane 20 (TOM20) or Map11c3a (LC3), was determined in the presence of amino acid-containing (DMSO) or -starved amino acid-depleted media, v-ATPase inhibitor concanamycin A (ConA 40nM), inhibitor of autophagosome-autolysosome fusion chloroquine (CQ, […]), or protease inhibitor, leupeptin […] following guidelines outlined for study of autophagy (Klionsky et al., “Guidelines for the Use and Interpretation of Assays for Monitoring Autophagy (3rd Edition),” Autophagy 12(1): 1-222 (2016) and Martinez-Lopez et al., “Autophagy Proteins Regulate ERK Phosphorylation,” Nat. Commun. 4: 2799 (2013), which are hereby incorporated by reference in their entirety). In brief, FACS-sorted
MMP-low and MMP- high HSCs were cultured in the presence or absence of indicated inhibitors for 4, 5, or 18 hours following which cells were subjected to immunofluorescence assays for TOM20, LC3 and/or LAMP1 or LAMP2 as described above. Analyses were performed to quantify the turnover of indicated protein in lysosomes by evaluating the accumulation of TOM20 or LC3 in the presence versus absence of an inhibitor. TOM20 and LC3 flux were determined by subtracting the colocalized value of inhibitor-untreated TOM20 or LC3 with LAMP1 from corresponding inhibitor-treated values. Images were captured using a Zeiss LSM880 Airyscan confocal microscope using 100 X objectives (Leica), and percentage colocalization was calculated using the JACoP plugin (NIH ImageJ).
Mitochondrial and Lysosome Morphology: Freshly isolated HSCs were analyzed for mitochondrial morphology. Each individual HSC (150 total) was analyzed by using Arivis Vision 4D software and classified as either fragmented or not fragmented in accordance with number of surfaces. Cells that fulfilled the definition of ‘fragmented’ contained 3 or more individual mitochondrial surfaces (Kask et al., “Fluorescence-intensity Distribution Analysis and Its Application in Biomolecular Detection Technology,” Proc. Natl. Acad. Sci. USA 96(24): 13756-13761 (1999), which is hereby incorporated by reference in its entirety). Lysosomes' fluorescence intensity or area profiling was calculated using ImageJ software enabling the detection of fluorescently labeled […] boundaries (lysosomal marker LAMP1), as reflected by sharp increases or decreases in fluorescence intensity. Channels displaying fluorescence for either mitochondria or lysosomes were thresholded with the IsoData option to delimit the boundaries of mitochondrial networks and lysosome morphology. The resulting outlines were measured using the analyzed particles option to determine the size of distinct particles representing mitochondrial networks or lysosomes. More than 50 cells/condition/experiment were analyzed for lysosomes. […]

C/C=C/[C@H]1O[C@@](O)([C@@H](C)[C@H](O)[C@H](C)[C@H]2OC(=O)/C(OC)=C/C(C)=C/[C@@H](C)[C@@H](O)[C@@H](CC)[C@@H](O)[C@H](C)C/C(C)=C/C=C/[C@@H]2OC)C[C@@H](O[C@H]2C[C@@H](O)[C@H](OC(N)=O)[C@@H](C)O2)[C@@H]1C [ConA, concanamycin A]
frequency of autolysosome (RFP+)-accumulated MMP-high and MMP-low HSCs [1]: specifically promoted the frequency | glycolysis (ECAR) in MMP-high and MMP-low HSPCs [2]: collapsed glycolysis | oxygen consumption in MMP-low HSPCs [2]: only a relatively small effect | oxygen consumption in primed (MMP-high) HSPCs [2]: drastically decreased oxygen consumption | fold increase of enlarged lysosomes, MMP-high HSCs ([3]; 5-hour ConA treatment, 40 nM): 35 | fold increase of enlarged lysosomes, MMP-low HSCs ([3]; 5-hour ConA treatment, 40 nM): 32 | increase of lysosomal localization of TOM20, MMP-high HSCs ([3]; ConA 40 nM): ~3 fold | increase of lysosomal localization of TOM20, MMP-low HSCs ([3]; ConA 40 nM): ~1.3 fold | mitochondrial fragmentation ([3]; ConA 40 nM): enhanced mitochondrial fragmentation | increase in LC3-positive puncta, MMP-high HSCs ([3]; ConA 40 nM, 18 hours): 3 fold | increase in LC3-positive puncta, MMP-low HSCs ([3]; ConA 40 nM, 18 hours): 1.33 fold | autolysosomal degradation (colocalization of LAMP1 with LC3) ([3]; ConA 40 nM, leupeptin 100 mM, chloroquine 40 mM, 18 hours, MMP-low and MMP-high HSCs): dramatically prevented autolysosomal degradation
